Test results from US9981959B2, “Thiazolyl and oxazolyl urea, thiourea, guanidine and cyanoguanidine compounds as TrkA kinase inhibitors” (Array BioPharma Inc., priority 2012, dated 2018).

Key:
Assay in all cases: KinaseProfiler off-target kinase profiling
Format in all cases: biochemical
Settings in all cases: 10 μM, ATP near Km
CDK1/cyclinB = target: T1, CDK1/cyclinB (Homo sapiens, UniProt P06493)
T1 construct: purchased Millipore (KinaseProfiler service)
How it was run: (§1)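 Single-point screen at 10 μM compound, run in duplicate with ATP near each kinase's Km. Values are percent of control (POC), averaged over the two replicates.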

Pim-2 = target: T2, Pim-2 (Homo sapiens, UniProt Q9P1W9)
T2 construct: purchased Millipore, Inc. (KinaseProfiler service)
How it was run: as §1

MKK6 = target: T3, MKK6 (Homo sapiens, UniProt P52564)
T3 construct: purchased Millipore, Inc. (KinaseProfiler service)
How it was run: as §1

EphB4 = target: T4, EphB4 (Homo sapiens, UniProt P54760)
T4 construct: purchased Millipore, Inc. (KinaseProfiler service)
How it was run: as §1

MKNK2 = target: T5, MKNK2 (Homo sapiens, UniProt Q9HBH9)
T5 construct: purchased Millipore, Inc. (KinaseProfiler service)
How it was run: as §1

p70S6K = target: T6, p70S6K (Homo sapiens, UniProt P23443)
T6 construct: purchased Millipore, Inc. (KinaseProfiler service)
How it was run: as §1

CAMK2d = target: T7, CAMK2d (Homo sapiens, UniProt Q13557)
T7 construct: purchased Millipore (KinaseProfiler service)
T7 sequence (Q13557 whole entry): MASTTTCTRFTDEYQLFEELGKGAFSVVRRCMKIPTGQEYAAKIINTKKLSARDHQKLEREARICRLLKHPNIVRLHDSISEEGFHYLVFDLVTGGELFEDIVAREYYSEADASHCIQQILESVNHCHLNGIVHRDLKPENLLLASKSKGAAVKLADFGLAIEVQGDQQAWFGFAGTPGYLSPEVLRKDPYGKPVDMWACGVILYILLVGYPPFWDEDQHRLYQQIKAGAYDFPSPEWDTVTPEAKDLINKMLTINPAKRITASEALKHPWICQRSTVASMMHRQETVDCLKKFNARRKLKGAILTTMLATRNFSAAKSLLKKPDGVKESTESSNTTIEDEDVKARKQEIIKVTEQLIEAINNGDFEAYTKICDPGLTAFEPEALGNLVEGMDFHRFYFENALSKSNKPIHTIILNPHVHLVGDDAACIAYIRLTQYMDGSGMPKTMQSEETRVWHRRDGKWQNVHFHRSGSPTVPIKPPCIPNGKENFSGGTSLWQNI
How it was run: as §1

IGF-1R = target: T8, IGF-1R (Homo sapiens, UniProt P08069)
T8 construct: purchased Millipore, Inc. (KinaseProfiler service)
How it was run: as §1

Rse = target: T9, Rse (Homo sapiens, UniProt Q06418)
T9 construct: purchased Millipore, Inc. (KinaseProfiler service)
How it was run: as §1

PDGFRalpha = target: T10, PDGFRalpha (Homo sapiens, UniProt P16234)
T10 construct: purchased Millipore, Inc. (KinaseProfiler service)
How it was run: as §1

PDGFRbeta = target: T11, PDGFRbeta (Homo sapiens, UniProt P09619)
T11 construct: purchased Millipore, Inc. (KinaseProfiler service)
How it was run: as §1

PrKX = target: T12, PrKX (Homo sapiens, UniProt P51817)
T12 construct: purchased Millipore, Inc. (KinaseProfiler service)
T12 sequence (P51817 whole entry): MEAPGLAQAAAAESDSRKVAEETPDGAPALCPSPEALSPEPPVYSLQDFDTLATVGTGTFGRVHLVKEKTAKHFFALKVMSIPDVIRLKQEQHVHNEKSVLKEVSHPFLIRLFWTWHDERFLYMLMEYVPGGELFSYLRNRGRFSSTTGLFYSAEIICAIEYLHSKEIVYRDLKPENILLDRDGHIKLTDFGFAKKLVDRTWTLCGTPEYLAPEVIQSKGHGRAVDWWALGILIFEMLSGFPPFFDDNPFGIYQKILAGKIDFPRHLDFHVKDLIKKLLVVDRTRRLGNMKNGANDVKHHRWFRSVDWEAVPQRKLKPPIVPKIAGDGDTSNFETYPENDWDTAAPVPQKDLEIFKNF
How it was run: as §1

PKCbetaII = target: T13, PKCbetaII (Homo sapiens, UniProt P05771)
T13 construct: purchased Millipore, Inc. (KinaseProfiler service)
T13 sequence (P05771 1-673 isoform P05771-2): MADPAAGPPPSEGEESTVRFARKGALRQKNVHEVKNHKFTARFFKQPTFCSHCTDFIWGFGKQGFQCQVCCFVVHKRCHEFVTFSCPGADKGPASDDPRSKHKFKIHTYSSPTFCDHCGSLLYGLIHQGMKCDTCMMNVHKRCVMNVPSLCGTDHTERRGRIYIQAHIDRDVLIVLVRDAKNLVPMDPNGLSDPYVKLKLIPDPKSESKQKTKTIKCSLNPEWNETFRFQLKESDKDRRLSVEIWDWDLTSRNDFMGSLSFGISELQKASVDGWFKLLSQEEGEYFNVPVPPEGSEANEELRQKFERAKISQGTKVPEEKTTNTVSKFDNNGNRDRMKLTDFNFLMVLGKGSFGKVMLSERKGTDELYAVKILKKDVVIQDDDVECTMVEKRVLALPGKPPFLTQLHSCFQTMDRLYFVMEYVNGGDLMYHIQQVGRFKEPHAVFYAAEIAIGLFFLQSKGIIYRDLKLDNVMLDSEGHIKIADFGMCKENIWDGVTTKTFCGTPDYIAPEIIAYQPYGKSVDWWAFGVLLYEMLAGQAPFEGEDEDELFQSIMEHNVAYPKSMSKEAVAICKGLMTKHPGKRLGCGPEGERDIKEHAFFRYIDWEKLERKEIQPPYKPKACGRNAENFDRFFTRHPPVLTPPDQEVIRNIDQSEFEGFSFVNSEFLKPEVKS
How it was run: as §1

DCAMKL2 = target: T14, DCAMKL2 (Homo sapiens, UniProt Q8N568)
T14 construct: purchased Millipore, Inc. (KinaseProfiler service)
How it was run: as §1

IRAK1 = target: T15, IRAK1 (Homo sapiens, UniProt P51617)
T15 construct: purchased Millipore, Inc. (KinaseProfiler service)
How it was run: as §1

MRCKalpha = target: T16, MRCKalpha (Homo sapiens, UniProt Q5VT25)
T16 construct: purchased Millipore, Inc. (KinaseProfiler service)
How it was run: as §1

JNK2alpha2 = target: T17, JNK2alpha2 (Homo sapiens, UniProt P45984)
T17 construct: purchased Millipore, Inc. (KinaseProfiler service)
How it was run: as §1

MST1 = target: T18, MST1 (Homo sapiens, UniProt Q13043)
T18 construct: purchased Millipore, Inc. (KinaseProfiler service)
T18 sequence (Q13043 whole entry): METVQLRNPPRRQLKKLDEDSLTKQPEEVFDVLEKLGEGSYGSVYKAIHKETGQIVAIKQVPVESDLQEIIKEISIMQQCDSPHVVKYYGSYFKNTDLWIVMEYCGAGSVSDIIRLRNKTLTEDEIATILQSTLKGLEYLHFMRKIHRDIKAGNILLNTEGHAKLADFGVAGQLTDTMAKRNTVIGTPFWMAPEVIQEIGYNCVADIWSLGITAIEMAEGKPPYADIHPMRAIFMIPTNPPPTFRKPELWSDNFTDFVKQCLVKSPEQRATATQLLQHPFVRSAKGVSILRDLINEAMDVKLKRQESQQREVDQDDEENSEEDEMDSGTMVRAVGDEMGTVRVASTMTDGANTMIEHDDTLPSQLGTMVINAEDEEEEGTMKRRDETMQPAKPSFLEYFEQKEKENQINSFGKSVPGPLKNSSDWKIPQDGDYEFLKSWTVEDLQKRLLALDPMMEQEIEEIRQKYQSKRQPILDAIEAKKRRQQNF
How it was run: as §1

Ron = target: T19, Ron (Homo sapiens, UniProt Q04912)
T19 construct: purchased Millipore, Inc. (KinaseProfiler service)
How it was run: as §1

EphA8 = target: T20, EphA8 (Homo sapiens, UniProt P29322)
T20 construct: purchased Millipore, Inc. (KinaseProfiler service)
How it was run: as §1

Bmx = target: T21, Bmx (Homo sapiens, UniProt P51813)
T21 construct: purchased Millipore (KinaseProfiler service)
How it was run: as §1

PTK5 = target: T22, PTK5 (Homo sapiens, UniProt P42685)
T22 construct: purchased Millipore, Inc. (KinaseProfiler service)
How it was run: as §1

IKKbeta = target: T23, IKKbeta (Homo sapiens, UniProt O14920)
T23 construct: purchased Millipore, Inc. (KinaseProfiler service)
T23 sequence (O14920 whole entry): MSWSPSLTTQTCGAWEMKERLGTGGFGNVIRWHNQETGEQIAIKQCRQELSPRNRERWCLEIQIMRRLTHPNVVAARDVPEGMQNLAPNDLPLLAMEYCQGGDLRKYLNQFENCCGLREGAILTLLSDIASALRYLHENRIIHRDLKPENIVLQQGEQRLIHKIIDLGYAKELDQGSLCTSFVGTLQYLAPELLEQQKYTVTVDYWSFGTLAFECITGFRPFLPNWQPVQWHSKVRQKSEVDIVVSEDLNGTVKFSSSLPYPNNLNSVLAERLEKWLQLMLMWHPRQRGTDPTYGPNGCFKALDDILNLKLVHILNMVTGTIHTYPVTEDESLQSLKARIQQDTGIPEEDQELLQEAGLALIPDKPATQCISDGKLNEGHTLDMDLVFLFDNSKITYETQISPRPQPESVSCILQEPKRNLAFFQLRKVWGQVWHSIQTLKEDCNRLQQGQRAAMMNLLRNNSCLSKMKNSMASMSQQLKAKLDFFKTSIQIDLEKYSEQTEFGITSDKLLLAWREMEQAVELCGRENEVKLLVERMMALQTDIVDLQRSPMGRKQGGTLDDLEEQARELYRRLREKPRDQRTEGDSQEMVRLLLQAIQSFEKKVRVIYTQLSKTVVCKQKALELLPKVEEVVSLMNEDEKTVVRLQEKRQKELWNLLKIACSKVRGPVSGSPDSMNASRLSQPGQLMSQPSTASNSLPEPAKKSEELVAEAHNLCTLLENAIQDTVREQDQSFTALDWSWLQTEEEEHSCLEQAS
How it was run: as §1

MELK = target: T24, MELK (Homo sapiens, UniProt Q14680)
T24 construct: purchased Millipore, Inc. (KinaseProfiler service)
How it was run: as §1

CDK5/p35 = target: T25, CDK5/p35 (Homo sapiens, UniProt Q00535)
T25 construct: purchased Millipore, Inc. (KinaseProfiler service)
How it was run: as §1

Pim-3 = target: T26, Pim-3 (Homo sapiens, UniProt Q86V86)
T26 construct: purchased Millipore, Inc. (KinaseProfiler service)
How it was run: as §1

NEK3 = target: T27, NEK3 (Homo sapiens, UniProt P51956)
T27 construct: purchased Millipore, Inc. (KinaseProfiler service)
T27 sequence (P51956 whole entry): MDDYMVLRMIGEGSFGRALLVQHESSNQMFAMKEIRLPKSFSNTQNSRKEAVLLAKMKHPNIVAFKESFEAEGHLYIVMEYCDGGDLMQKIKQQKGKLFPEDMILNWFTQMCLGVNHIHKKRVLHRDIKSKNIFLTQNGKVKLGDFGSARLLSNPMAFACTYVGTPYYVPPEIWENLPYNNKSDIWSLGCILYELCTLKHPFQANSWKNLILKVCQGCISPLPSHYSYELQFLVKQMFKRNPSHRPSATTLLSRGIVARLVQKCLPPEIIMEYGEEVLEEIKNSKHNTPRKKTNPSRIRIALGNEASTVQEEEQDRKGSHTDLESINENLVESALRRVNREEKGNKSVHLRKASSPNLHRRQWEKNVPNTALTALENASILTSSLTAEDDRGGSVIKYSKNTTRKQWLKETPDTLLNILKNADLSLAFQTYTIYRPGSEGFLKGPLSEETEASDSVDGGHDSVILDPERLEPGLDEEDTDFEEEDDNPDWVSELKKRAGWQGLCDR
How it was run: as §1

CAMK2b = target: T28, CAMK2b (Homo sapiens, UniProt Q13554)
T28 construct: purchased Millipore (KinaseProfiler service)
How it was run: as §1

ALK = target: T29, ALK (Homo sapiens, UniProt Q9UM73)
T29 construct: purchased Millipore (KinaseProfiler service)
How it was run: as §1

p38alpha = target: T30, p38alpha (Homo sapiens, UniProt Q16539)
T30 construct: purchased Millipore, Inc. (KinaseProfiler service)
How it was run: as §1

Rsk1 = target: T31, Rsk1 (Homo sapiens, UniProt Q15418)
T31 construct: purchased Millipore, Inc. (KinaseProfiler service)
How it was run: as §1

Ret = target: T32, Ret (Homo sapiens, UniProt P07949)
T32 construct: purchased Millipore, Inc. (KinaseProfiler service)
How it was run: as §1

Pim-1 = target: T33, Pim-1 (Homo sapiens, UniProt P11309)
T33 construct: purchased Millipore, Inc. (KinaseProfiler service)
How it was run: as §1

PKCzeta = target: T34, PKCzeta (Homo sapiens, UniProt Q05513)
T34 construct: purchased Millipore, Inc. (KinaseProfiler service)
How it was run: as §1

PAK6 = target: T35, PAK6 (Homo sapiens, UniProt Q9NQU5)
T35 construct: purchased Millipore, Inc. (KinaseProfiler service)
How it was run: as §1

mTOR/FKBP12 = target: T36, mTOR/FKBP12 (Homo sapiens, UniProt P42345)
T36 construct: purchased Millipore, Inc. (KinaseProfiler service)
How it was run: as §1

Plk3 = target: T37, Plk3 (Homo sapiens, UniProt Q9H4B4)
T37 construct: purchased Millipore, Inc. (KinaseProfiler service)
How it was run: as §1

LIMK1 = target: T38, LIMK1 (Homo sapiens, UniProt P53667)
T38 construct: purchased Millipore, Inc. (KinaseProfiler service)
T38 sequence (P53667 whole entry): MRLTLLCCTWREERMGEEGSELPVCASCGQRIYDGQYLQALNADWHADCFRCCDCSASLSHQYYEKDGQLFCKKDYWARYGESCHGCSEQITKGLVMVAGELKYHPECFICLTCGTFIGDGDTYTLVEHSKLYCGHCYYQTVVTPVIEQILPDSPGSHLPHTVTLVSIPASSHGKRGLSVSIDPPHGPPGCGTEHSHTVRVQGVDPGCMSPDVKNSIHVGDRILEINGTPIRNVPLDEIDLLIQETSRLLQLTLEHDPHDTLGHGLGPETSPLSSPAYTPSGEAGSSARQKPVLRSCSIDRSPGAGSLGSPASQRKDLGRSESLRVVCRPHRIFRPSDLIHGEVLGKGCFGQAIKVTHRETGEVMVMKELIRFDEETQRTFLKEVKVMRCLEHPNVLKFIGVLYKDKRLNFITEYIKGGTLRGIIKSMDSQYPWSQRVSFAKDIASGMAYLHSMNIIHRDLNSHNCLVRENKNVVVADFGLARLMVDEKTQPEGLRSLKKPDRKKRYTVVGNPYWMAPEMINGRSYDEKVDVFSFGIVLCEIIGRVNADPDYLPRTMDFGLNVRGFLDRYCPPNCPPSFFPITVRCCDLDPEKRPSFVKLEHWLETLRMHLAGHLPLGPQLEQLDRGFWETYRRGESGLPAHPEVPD
How it was run: as §1

CDK5/p25 = target: T39, CDK5/p25 (Homo sapiens, UniProt Q00535)
T39 construct: purchased Millipore, Inc. (KinaseProfiler service)
How it was run: as §1

DDR2 = target: T40, DDR2 (Homo sapiens, UniProt Q16832)
T40 construct: purchased Millipore, Inc. (KinaseProfiler service)
How it was run: as §1

Tie2 = target: T41, Tie2 (Homo sapiens, UniProt Q02763)
T41 construct: purchased Millipore, Inc. (KinaseProfiler service)
T41 sequence (Q02763 23-1124): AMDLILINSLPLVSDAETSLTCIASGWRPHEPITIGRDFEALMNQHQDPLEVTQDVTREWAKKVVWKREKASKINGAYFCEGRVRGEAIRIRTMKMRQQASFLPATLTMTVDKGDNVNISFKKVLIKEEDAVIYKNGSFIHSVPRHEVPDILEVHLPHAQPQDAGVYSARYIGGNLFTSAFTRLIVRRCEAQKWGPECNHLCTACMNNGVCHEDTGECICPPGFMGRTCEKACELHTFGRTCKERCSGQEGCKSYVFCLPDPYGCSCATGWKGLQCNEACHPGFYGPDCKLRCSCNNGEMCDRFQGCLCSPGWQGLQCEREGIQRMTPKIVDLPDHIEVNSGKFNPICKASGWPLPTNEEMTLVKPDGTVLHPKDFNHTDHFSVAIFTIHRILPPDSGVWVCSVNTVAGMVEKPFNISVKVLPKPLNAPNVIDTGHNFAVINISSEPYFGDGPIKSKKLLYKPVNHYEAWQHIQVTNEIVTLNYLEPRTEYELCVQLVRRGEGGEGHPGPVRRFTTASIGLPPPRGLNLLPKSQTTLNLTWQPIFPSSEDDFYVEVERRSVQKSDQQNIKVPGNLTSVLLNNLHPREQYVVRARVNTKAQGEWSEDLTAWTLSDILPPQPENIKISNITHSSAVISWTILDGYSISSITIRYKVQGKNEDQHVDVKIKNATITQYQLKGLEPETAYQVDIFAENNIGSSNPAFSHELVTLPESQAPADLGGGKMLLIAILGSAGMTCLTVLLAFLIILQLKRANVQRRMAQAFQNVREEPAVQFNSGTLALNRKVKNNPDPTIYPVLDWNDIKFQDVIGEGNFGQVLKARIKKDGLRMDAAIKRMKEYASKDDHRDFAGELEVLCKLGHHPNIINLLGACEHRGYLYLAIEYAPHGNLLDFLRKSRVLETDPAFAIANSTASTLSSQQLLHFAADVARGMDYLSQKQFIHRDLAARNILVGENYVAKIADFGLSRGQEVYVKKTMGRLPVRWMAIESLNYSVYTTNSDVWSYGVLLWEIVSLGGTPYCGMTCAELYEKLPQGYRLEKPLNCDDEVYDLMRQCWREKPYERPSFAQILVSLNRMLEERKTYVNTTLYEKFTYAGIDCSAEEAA
How it was run: as §1

Avg POC (CDK1/cyclinB): 106 POC | Avg POC (Pim-2): 142.5 POC | Avg POC (MKK6): 134 POC | Avg POC (EphB4): 130 POC | Avg POC (MKNK2): 95 POC | Avg POC (p70S6K): 322 POC | Avg POC (CAMK2d): 118 POC | Avg POC (IGF-1R): 82.5 POC | Avg POC (Rse): 108 POC | Avg POC (PDGFRalpha): 102.5 POC | Avg POC (PDGFRbeta): 162 POC | Avg POC (PrKX): 122 POC | Avg POC (PKCbetaII): 95 POC | Avg POC (DCAMKL2): 210.5 POC | Avg POC (IRAK1): 107.5 POC | Avg POC (MRCKalpha): 147.5 POC | Avg POC (JNK2alpha2): 97.5 POC | Avg POC (MST1): 100.5 POC | Avg POC (Ron): 110.5 POC | Avg POC (EphA8): 118.5 POC | Avg POC (Bmx): 129.5 POC | Avg POC (PTK5): 104.5 POC | Avg POC (IKKbeta): 112 POC | Avg POC (MELK): 99 POC | Avg POC (CDK5/p35): 111 POC | Avg POC (Pim-3): 107.5 POC | Avg POC (NEK3): 108.5 POC | Avg POC (CAMK2b): 102 POC | Avg POC (ALK): 108 POC | Avg POC (p38alpha): 91 POC | Avg POC (Rsk1): 123.5 POC | Avg POC (Ret): 91.5 POC | Avg POC (Pim-1): 109.5 POC | Avg POC (PKCzeta): 108 POC | Avg POC (PAK6): 135 POC | Avg POC (mTOR/FKBP12): 103 POC | Avg POC (Plk3): 105 POC | Avg POC (LIMK1): 102 POC | Avg POC (CDK5/p25): 104.5 POC | Avg POC (DDR2): 98 POC | Avg POC (Tie2): 131.5 POC
Structure (SMILES): Cc1c(-c2cnn(C)c2)nn(-c2ccccc2)c1NC(=O)Nc1sc(C(F)(F)F)nc1-c1ccccc1 [Example 2, 1-(1′,4-dimethyl-1-phenyl-1H,1′H-[3,4′-bipyrazol]-5-yl)-3-(4-phenyl-2-(trifluoromethyl)thiazol-5-yl)urea]
